Consider 21 compounds from ChEMBL document CHEMBL3045636, “Synthesis, characterization, in vitro anticancer activity, and docking of Schiff bases of 4-amino-1,2-naphthoquinone” (Med Chem Res, 2013).

Assay type in all cases: functional, cell-based
For test [1], the system named is MG-63. The test can be described thus: Cytotoxicity against Homo sapiens (human) MG63 cells assessed as reduction of cell survival after 48 hr by MTT assay. As to conditions: MG-63, 48 h.
For test [2], the system named is HepG2. Briefly: Cytotoxicity against Homo sapiens (human) HepG2 cells assessed as reduction of cell survival after 48 hr by MTT assay. As to conditions: HepG2, 48 h. (In general: Tetrazolium dyes change colour on reduction, which living cells bring about.)
The test system of test [3] is MCF7. The test can be described thus: Cytotoxicity against Homo sapiens (human) MCF7 cells assessed as reduction of cell survival after 48 hr by MTT assay. The note with it: MCF7, 48 h.
Test [4] concerns MCF7. Briefly: Cytotoxicity against Homo sapiens (human) MCF7 cells assessed as morphological changes at 10 uM after 48 hr by phase contrast microscopic analysis relative to untreated control.
Test [5] has as its system MG-63. The test can be described thus: Cytotoxicity against Homo sapiens (human) MG63 cells assessed as morphological changes at 10 uM after 48 hr by phase contrast microscopic analysis relative to untreated control.
Test [6] has as its system HepG2. The test can be described thus: Cytotoxicity against Homo sapiens (human) HepG2 cells assessed as morphological changes at 10 uM after 48 hr by phase contrast microscopic analysis relative to untreated control.

The structures appear in SMILES notation. The source made the active and inactive calls. The rule behind the calls is not given here.

What is called IC50 is the concentration at which inhibition is half-maximal. As to `O=C1C=C(N=C2CCCCC2)c2ccccc2C1=O`, the IC50 in the test on MG-63 [1] was determined as 11.5 µM; with HepG2 [2], 7.37 µM; with MCF7 [3], 9.3 µM.

On to `O=C1C=C(/N=C\c2ccccc2[N+](=O)[O-])c2ccccc2C1=O`, for which the IC50 in the test on MG-63 [1] was 17 µM; with HepG2 [2], 11.8 µM; with MCF7 [3] it was 14.4 µM.

For `COc1cc(/C=N\C2=CC(=O)C(=O)c3ccccc32)cc(OC)c1OC`, the result in the test with MCF7 [4], with MG-63 [5] and in the test with HepG2 [6] was Active. For the same compound, the values for the 50% inhibitory concentration (IC50) with MG-63 [1], in the test with HepG2 [2] and in the test on MCF7 [3] were 9.69 µM, 5.91 µM and 7.65 µM, respectively.

`O=C1C=C(/N=C\c2ccc([N+](=O)[O-])cc2)c2ccccc2C1=O`: the values for the half-maximal inhibitory concentration (IC50) in the test on MG-63 [1], in the test with HepG2 [2] and in the test on MCF7 [3] were 25 µM, 15.6 µM and 14.7 µM, respectively.

Consider `O=C1C=C(/N=C\c2cccc(Br)c2)c2ccccc2C1=O`, for which the IC50 was determined as 17.3 µM in the test on MG-63 [1], 12.2 µM in the test on HepG2 [2] and 14.6 µM in the test with MCF7 [3].

For `COc1cc(/C=N\C2=CC(=O)C(=O)c3ccccc32)ccc1O`, the values for the IC50 in the test on MG-63 [1], in the test with HepG2 [2] and with MCF7 [3] were 9.98 µM, 6.37 µM and 8.24 µM, respectively.

As to `O=C1C=C(/N=C\C=C\c2ccccc2)c2ccccc2C1=O`, the IC50 was 14.8 µM in the test on MG-63 [1], 10.6 µM in the test on HepG2 [2] and 12.9 µM with MCF7 [3].

On to `O=C1C=C(/N=C\c2ccccc2Cl)c2ccccc2C1=O`, for which the IC50 was 17.1 µM in the test with MG-63 [1], 12.1 µM with HepG2 [2] and 14.3 µM with MCF7 [3].

For `O=C1C=C(/N=C\c2ccc(Cl)cc2Cl)c2ccccc2C1=O`, the IC50 is 24.3 µM in the test on MG-63 [1], 15.7 µM in the test on HepG2 [2] and 14.7 µM in the test with MCF7 [3].

For the compound `NC1=CC(=O)C(=O)c2ccccc21` [4-AMINO-[1,2]NAPHTHOQUINONE], the figures for the IC50 with MG-63 [1], with HepG2 [2] and in the test with MCF7 [3] were 24.6 µM, 15.7 µM and 14.8 µM, respectively.

In the case of `O=C1C=C(/N=C\c2ccc(O)cc2)c2ccccc2C1=O`, the half-inhibitory concentration (IC50) with MG-63 [1] turned out to be 13.6 µM; in the test on HepG2 [2] it was 8.92 µM; with MCF7 [3], 11.1 µM.

Consider `O=C1C=C(/N=C\c2ccccc2)c2ccccc2C1=O`, for which the results for the 50% inhibitory concentration (IC50) in the test with MG-63 [1], in the test with HepG2 [2] and in the test with MCF7 [3] were 16.2 µM, 11.5 µM and 13.8 µM, respectively.

As to `COc1ccc(/C=N\C2=CC(=O)C(=O)c3ccccc32)cc1OC`, the IC50 in the test with MG-63 [1] is 13.3 µM; in the test with HepG2 [2] it was 9.15 µM; in the test with MCF7 [3], 10.9 µM.

For the compound `O=C1C=C(N=C2CCCC2)c2ccccc2C1=O`, the half-maximal inhibitory concentration (IC50) in the test on MG-63 [1] turned out to be 11.9 µM; with HepG2 [2], 7.77 µM; with MCF7 [3], 9.64 µM.

`COc1cccc2c1C(=O)c1c(O)c3c(c(O)c1C2=O)C[C@@](O)(C(=O)CO)C[C@@H]3O[C@H]1C[C@H](N)[C@H](O)[C@H](C)O1` [DOXORUBICIN]: the half-inhibitory concentration (IC50) came to 3.17 µM in the test with MG-63 [1], 1.69 µM in the test on HepG2 [2] and 2.67 µM in the test with MCF7 [3].

Take `Cc1ccc(/C=N\C2=CC(=O)C(=O)c3ccccc32)cc1`: the concentration for half-maximal inhibition (IC50) came out at 15.1 µM with MG-63 [1], 10.4 µM with HepG2 [2] and 12.6 µM in the test with MCF7 [3].

For `O=C1C=CC(=O)c2ccccc21` [NAPHTHOQUINONE], the IC50 in the test on MG-63 [1] was over 25 µM; in the test with HepG2 [2], 15.9 µM; in the test on MCF7 [3], 16.9 µM.

On to `CN(C)c1ccc(/C=N\C2=CC(=O)C(=O)c3ccccc32)cc1`, for which the concentration for half-maximal inhibition (IC50) in the test on MG-63 [1] stood at 12.9 µM; in the test on HepG2 [2], 7.72 µM; with MCF7 [3] it was 10.6 µM.

For the compound `O=C1C=C(/N=C\c2c[nH]c3ccccc23)c2ccccc2C1=O`, the 50% inhibitory concentration (IC50) in the test on MG-63 [1] was found to be 13.8 µM; in the test on HepG2 [2] it was 10.1 µM; in the test on MCF7 [3], 11.3 µM.

`O=C1C=C(/N=C\c2ccccc2O)c2ccccc2C1=O`: the IC50 with MG-63 [1] was determined as 16.1 µM; in the test on HepG2 [2] it was 11 µM; in the test on MCF7 [3], 13.2 µM.

Consider `COc1ccc(/C=N\C2=CC(=O)C(=O)c3ccccc32)cc1`, for which the IC50 with MG-63 [1] is 12.7 µM; with HepG2 [2] it was 9.03 µM; in the test with MCF7 [3], 11.2 µM.
